The text below walks through data of ChEMBL document CHEMBL1151502, “New base-altered adenosine analogues: Synthesis and affinity at adenosine A1 and A2A receptors” (Bioorg Med Chem Lett, 1997).

The target of experiment [1] is Adenosine receptors; A1 & A2a (Rattus norvegicus) (UniProt P25099+P30543). The experiment is described as follows: Selective ratio of A1 receptor to A2A receptor. The experiment is classed as protein assay.
The target in a further experiment is Adenosine receptor A2a (Rattus norvegicus, UniProt P30543). The experiment is described as follows: Displacement of [3H]-CGS- 21680 from Adenosine A2 receptor of rat striatal membranes. The experiment is classed as cell membranes, Membrane.
Sequence of Adenosine receptor A2a (P30543 whole entry): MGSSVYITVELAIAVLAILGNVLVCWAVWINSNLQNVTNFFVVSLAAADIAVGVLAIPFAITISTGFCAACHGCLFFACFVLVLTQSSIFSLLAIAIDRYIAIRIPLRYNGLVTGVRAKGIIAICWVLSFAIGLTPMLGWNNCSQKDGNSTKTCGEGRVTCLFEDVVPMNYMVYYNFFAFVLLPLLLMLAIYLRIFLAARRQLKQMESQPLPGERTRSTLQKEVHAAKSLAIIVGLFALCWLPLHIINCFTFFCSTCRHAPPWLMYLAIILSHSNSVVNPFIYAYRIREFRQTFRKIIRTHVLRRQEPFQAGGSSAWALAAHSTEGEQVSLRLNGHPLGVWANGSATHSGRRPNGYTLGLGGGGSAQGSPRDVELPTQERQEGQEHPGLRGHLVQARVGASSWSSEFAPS
The next experiment addresses T1, Adenosine receptor A1 (Rattus norvegicus, UniProt P25099).
T1 sequence (P25099 whole entry): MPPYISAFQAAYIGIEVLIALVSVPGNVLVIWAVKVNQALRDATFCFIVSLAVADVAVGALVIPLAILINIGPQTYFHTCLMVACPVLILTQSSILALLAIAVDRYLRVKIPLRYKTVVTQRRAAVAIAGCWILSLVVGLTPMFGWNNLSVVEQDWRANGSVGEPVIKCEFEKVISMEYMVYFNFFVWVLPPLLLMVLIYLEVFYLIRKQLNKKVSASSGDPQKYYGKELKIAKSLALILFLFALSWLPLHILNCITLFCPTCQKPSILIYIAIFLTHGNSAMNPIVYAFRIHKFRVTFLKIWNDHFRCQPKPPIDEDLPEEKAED
The experiment is described as follows: Binding affinity at Adenosine A1 receptor in rat brain membranes by [3H](R)-PIA displacement. The experiment is classed as cell membranes.

Experiment [2] has as its target Adenosine receptor A2a (Rattus norvegicus) (UniProt P30543). The experiment is described as follows: Displacement of [3H]-CGS- 21680 from Adenosine A2 receptor in rat striatal membranes at 10e-5 M. The experiment is classed as cell membranes. The settings on record: Membrane. On the technique in general: Loss of bound radioactivity is the signal in a displacement assay; it reports binding, not function.

For experiment [3] the target is unchanged. The experiment is described as follows: Displacement of [3H]-CGS- 21680 from Adenosine A2 receptor in rat striatal membranes at 10e-4 M. The experiment is classed as cell membranes. Particulars: Membrane.
Experiment [4] addresses Adenosine receptor A1 (Rattus norvegicus) (UniProt P25099). The experiment is described as follows: Binding affinity for Adenosine A1 receptor.

Structures are written as SMILES.

Sequence of Adenosine receptor A2a (Rattus norvegicus) (P30543 whole entry): as the sequence (P30543 whole entry) above
Sequence of Adenosine receptors; A1 & A2a (Rattus norvegicus) (P30543 whole entry, looked up, one chain of several): as the sequence (P30543 whole entry) above

For `OC[C@H]1O[C@@H](n2cnc3c(NN4CCCC4)ncnc32)[C@H](O)[C@@H]1O` (stereo in doubt) [listing 1 of 2 here], in experiment [1], the Ratio turned out to be 350.

Usually Ki stands for the dissociation constant of the complex between target and ligand, obtained from inhibition or displacement. In the case of `CC(C)C[C@H](CO)Nc1ncnc2c1ncn2C1O[C@H](CO)[C@@H](O)[C@H]1O` (stereo not given in full), the Ki came to 30.3 µM at Adenosine receptor A2a and 0.224 µM on Adenosine receptor A1.

Molecule `OC[C@H]1O[C@@H](n2cnc3c(NN4CCC(Sc5ccccc5)CC4)nc(Cl)nc32)[C@H](O)[C@@H]1O` came in with a Ki on Adenosine receptor A2a of 0.47 µM. Moreover, the Ratio in experiment [1] was determined as 522.

For the molecule `OC[C@H]1OC(n2cnc3c(NN4CCCCC4)nc(I)nc32)[C@H](O)[C@@H]1O` (stereo not given in full), the values for the Ki on Adenosine receptor A2a and at Adenosine receptor A1 were 8.63 µM and 0.071 µM, respectively.

In the case of `OC[C@@H](Cc1ccccc1)Nc1nc(Cl)nc2c1ncn2C1O[C@H](CO)[C@@H](O)[C@H]1O` (stereo not given in full), the Ki was found to be 10.4 µM at Adenosine receptor A2a and 0.452 µM at Adenosine receptor A1.

As for `OC[C@H]1O[C@@H](n2cnc3c(NN4CCCC4)ncnc32)[C@H](O)[C@@H]1O` (stereo in doubt; 3), the Ki worked out at 2.8 µM on Adenosine receptor A2a and 0.008 µM on Adenosine receptor A1.

Turning to `CC(C)C[C@@H](CO)Nc1ncnc2c1ncn2C1O[C@H](CO)[C@@H](O)[C@H]1O` (stereo not given in full), the Displacement in experiment [2] is less than 10%. Further, the Ki at Adenosine receptor A1 amounted to 0.139 µM.

For `OC[C@@H](Cc1ccccc1)Nc1nc(I)nc2c1ncn2C1O[C@H](CO)[C@@H](O)[C@H]1O` (stereo not given in full), the Displacement in experiment [3] amounted to 49%. The Ki on Adenosine receptor A1 was found to be 0.989 µM.

For the molecule `CC(Nc1ncnc2c1ncn2[C@@H]1O[C@H](CO)[C@@H](O)[C@H]1O)[C@@H](O)c1ccccc1` (stereo not given in full), the Ki was 0.39 µM at Adenosine receptor A2a and 0.0027 µM on Adenosine receptor A1. The Ratio in experiment [1] is 144.

Turning to `OC[C@H](Cc1ccccc1)Nc1nc(Cl)nc2c1ncn2C1O[C@H](CO)[C@@H](O)[C@H]1O` (stereo not given in full), the Ki at Adenosine receptor A2a stood at 0.492 µM; at Adenosine receptor A1, 0.00241 µM.

With `OC[C@H](Cc1ccccc1)Nc1nc(I)nc2c1ncn2C1O[C@H](CO)[C@@H](O)[C@H]1O` (stereo not given in full), the Ki on Adenosine receptor A2a turned out to be 1.36 µM; on Adenosine receptor A1, 0.023 µM.

Regarding `OC[C@H]1O[C@@H](n2cnc3c(NN4CCCCC4)nc(Cl)nc32)[C@H](O)[C@@H]1O`, the Ki amounted to 0.936 µM at Adenosine receptor A2a and 0.00355 µM at Adenosine receptor A1.

In the case of `OC[C@H]1O[C@@H](n2cnc3c(NN4CCCC4)ncnc32)[C@H](O)[C@@H]1O` (stereo in doubt) [listing 2 of 2 here], the results for the Ki at Adenosine receptor A2a and at Adenosine receptor A1 were 2.8 µM and 0.008 µM, respectively.

For the molecule `OC[C@H]1OC(n2cnc3c(NN4CCOCC4)nc(I)nc32)[C@H](O)[C@@H]1O` (stereo not given in full), the Ki at Adenosine receptor A2a was 19.4 µM; at Adenosine receptor A1, 0.113 µM.

`OC[C@H]1OC(n2cnc3c(NN4CCOCC4)ncnc32)[C@H](O)[C@@H]1O` (stereo not given in full) returned a Displacement in experiment [3] of 36%. This molecule returned a Ki at Adenosine receptor A1 of 15.5 µM.

Regarding `OC[C@H]1O[C@@H](n2cnc3c(NN4CCOCC4)nc(Cl)nc32)[C@H](O)[C@@H]1O`, the figures for the Ki (at Adenosine receptor A2a; at Adenosine receptor A1; in experiment [4]) were 1.9 µM, 0.00489 µM and 0.008 µM, respectively.

For `OC[C@H]1O[C@@H](n2cnc3c(NN4CCCCC4)ncnc32)[C@H](O)[C@@H]1O`, the Displacement in experiment [3] was 29%. The molecule further yielded a Ki on Adenosine receptor A1 of 0.0073 µM.
